Source: patent US20230339970A1, “CASEIN KINASE 1 DELTA MODULATORS” (priority 2020, published 2023)

What was measured:
[1] = molecular target: T1, human recombinant GST cleaved CSNK1D (Homo sapiens, UniProt P48730); assay: Purified Enzyme Assay (ADP-Glo CSNK1D Kinase Assay); type: biochemical; settings: 2 nM CSNK1D; peptide substrate 150 μM; ATP 20 μM; 45 minutes at room temperature
T1 construct: GST (cleaved yes); purchased University of Dundee clone DU 19064
Method in brief: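 GST-cleaved human recombinant CSNK1D phosphorylates peptide PLSRTL-pS-VASLPGL with ATP; compounds added in dose-response, 45 min at room temperature. ADP formed measured by ADP-Glo luminescence and converted to percent activity.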

human CSNK1D = molecular target: T2, human CSNK1D (Homo sapiens, UniProt P48730); assay: Whole Cell nBRET CSNK1D Binding Assay; settings: living CHO cells stably expressing human CSNK1D tagged with nanoluciferase; NanoBret tracer 130 nM; 2 hours at 37 C
T2 construct: expressed in transfected cells
T2 sequence (P48730 whole entry): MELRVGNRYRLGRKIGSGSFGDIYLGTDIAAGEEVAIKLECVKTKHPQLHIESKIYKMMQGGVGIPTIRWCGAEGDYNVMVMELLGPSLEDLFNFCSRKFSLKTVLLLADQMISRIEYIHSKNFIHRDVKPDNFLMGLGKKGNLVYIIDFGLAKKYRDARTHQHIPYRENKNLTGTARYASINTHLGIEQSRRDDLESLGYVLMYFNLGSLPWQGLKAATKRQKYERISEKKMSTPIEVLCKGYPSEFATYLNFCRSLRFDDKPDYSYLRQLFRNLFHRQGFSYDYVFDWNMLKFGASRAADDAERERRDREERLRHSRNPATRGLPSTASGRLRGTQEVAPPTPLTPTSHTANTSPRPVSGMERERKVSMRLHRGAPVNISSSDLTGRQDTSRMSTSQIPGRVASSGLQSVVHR

T1 sequence (P48730 whole entry): as above

Structure (SMILES)	IC50 [1] [nM]	IC50 (human CSNK1D) [nM]
Cc1cc(-c2c(-c3ccc(F)cc3)nn3c2OCC(C)C3)c2cn[nH]c2n1 (racemic) [Example 192, (R/S)-2-(4-Fluorophenyl)-6-methyl-3-(6-methyl-1H-pyrazolo[3,4-b]pyridin-4-yl)-6,7-dihydro-5H-pyrazolo[5,1-b][1,3]oxazine]	1	4
CC1(C(F)(F)F)Cn2nc(-c3ccc(F)cn3)c(-c3ccnc4[nH]ncc34)c2CO1 (stereo not drawn) [Example 176, 2-(5-Fluoropyridin-2-yl)-6-methyl-3-(1H-pyrazolo[3,4-b]pyridin-4-yl)-6-(trifluoromethyl)-6,7-dihydro-4H-pyrazolo[5,1-c][1,4]oxazine]	7	198
COc1ccc2nccc(-c3c(-c4ccc(F)cn4)nn4c3OCCC4)c2n1 [Example 190, 2-(5-Fluoro-2-pyridyl)-3-(6-methoxy-1,5-naphthyridin-4-yl)-6,7-dihydro-5H-pyrazolo[5,1-b][1,3]oxazine]	4	215
Fc1ccc(-c2nn3c(c2-c2ccnc4[nH]ncc24)CO[C@H](C2CC2)C3)nc1 (single isomer, unassigned) [Example 108, (*R)-6-Cyclopropyl-2-(5-fluoropyridin-2-yl)-3-(1H-pyrazolo[3,4-b]pyridin-4-yl)-6,7-dihydro-4H-pyrazolo[5,1-c][1,4]oxazine]	41	681
c1cc(-c2c(-c3cscn3)nn3c2CCCC3)c2cn[nH]c2n1 [Example 31, 4-(3-(1H-Pyrazolo[3,4-b]pyridin-4-yl)-4,5,6,7-tetrahydropyrazolo[1,5-a]pyridin-2-yl)thiazole]	65	995
C[C@@H]1OCc2c(-c3ccnc4[nH]ncc34)c(-c3ccc(F)cn3)nn2[C@@H]1C (single isomer, unassigned) [Example 117, (6*S,7*R)-2-(5-Fluoropyridin-2-yl)-6,7-dimethyl-3-(1H-pyrazolo[3,4-b]pyridin-4-yl)-6,7-dihydro-4H-pyrazolo[5,1-c][1,4]oxazine]	45	925
C[C@@H]1OCc2c(-c3ccnc4[nH]ncc34)c(-c3ccc(F)cc3)nn2[C@@H]1C (single isomer, unassigned) [Example 113, (6*S,7*R)-2-(4-Fluorophenyl)-6,7-dimethyl-3-(1H-pyrazolo[3,4-b]pyridin-4-yl)-6,7-dihydro-4H-pyrazolo[5,1-c][1,4]oxazine]	10	113

Next, values leading:

IC50 [1] [nM]	IC50 (human CSNK1D) [nM]	Structure (SMILES)
5	43	CC1(C)CCn2nc(-c3ccc(F)cc3)c(-c3ccnc4[nH]ncc34)c21 [Example 245, 4-[2-(4-Fluorophenyl)-4,4-dimethyl-5,6-dihydropyrrolo[1,2-b]pyrazol-3-yl]-1H-pyrazolo[3,4-b]pyridine]
6	65	Fc1ccc(-c2nn3c(c2-c2c(F)cnc4[nH]ncc24)OC[C@H]2C[C@H]2C3)nc1 (stereo in doubt) [Example 481, (5a*S,6a*R)-3-(5-Fluoro-1H-pyrazolo[3,4-b]pyridin-4-yl)-2-(5-fluoropyridin-2-yl)-5a,6,6a,7-tetrahydro-5H-cyclopropa[e]pyrazolo[5,1-b][1,3]oxazepine]
30	581	CC1COc2c(-c3ccn4nccc4c3)c(-c3ccc(F)cn3)nn2C1 (stereo not drawn) [Example 443, 2-(5-Fluoropyridin-2-yl)-6-methyl-3-(pyrazolo[1,5-a]pyridin-5-yl)-6,7-dihydro-5H-pyrazolo[5,1-b][1,3]oxazine]
12	24	Fc1ccc(-c2nn3c(c2-c2ccn4nccc4c2)OCC2(CC2)C3)cc1 [Example 466, 2′-(4-Fluorophenyl)-3′-(pyrazolo[1,5-a]pyridin-5-yl)-5′H,7′H-spiro[cyclopropane-1,6′-pyrazolo[5,1-b][1,3]oxazine]]
1	9	Fc1ccc(-c2nn3c(c2-c2ccnc4[nH]ncc24)C2CC2C3)cc1 (racemic) [Example 275, (Racemic) 2-(4-Fluorophenyl)-3-(1H-pyrazolo[3,4-b]pyridin-4-yl)-3b,4,4a,5-tetrahydrocyclopropa[3,4]pyrrolo[1,2-b]pyrazole]
